Reference: patent US6534530B1, “Antipicornaviral compounds and compositions, their pharmaceutical uses, and materials for their synthesis” (Agouron Pharmaceuticals, Inc., priority 1999, dated 2003)

Legend:
[1] = target: T1, rhinovirus 3C protease, HRV-89 (Human rhinovirus A serotype 89, UniProt P07210); assay: Inhibition of rhinovirus 3C protease (FRET assay), serotype 89; assay type: biochemical, human rhinovirus 89; conditions: HRV-89 3C protease
T1 construct: Recombinant rhinovirus 3C proteases

[2] = tested on: H1-HeLa cells; assay: Cytotoxicity in mock-infected H1-HeLa cells (antirhinoviral assay, XTT); conditions: HRV-89 row
[3] = target: T2, recombinant rhinovirus 3C protease, serotype 14 (Human rhinovirus 14, UniProt P03303); assay: Inhibition of rhinovirus 3C protease (FRET assay), serotype 14; assay type: biochemical
T2 construct: Recombinant rhinovirus 3C proteases; made in house
Method: (§1) Stock solutions (50 mM, in DMSO) of various compounds were prepared; dilutions were in the same solvent. Recombinant rhinovirus 3C proteases (see Birch et al., “Purification of recombinant human rhinovirus 14 3C protease expressed in Escherichia coli,” Protein Expr. Pur. (1995), vol. 6(5), 609-618) from serotypes 14, 16, and 2 were prepared by the following standard chromatographic procedures: (1) ion exchange using Q Sepharose Fast Flow from Pharmacia; (2) affinity chromatography using Affi-Gel Blue from Biorad; and (3) sizing using Sephadex G-100 from Pharmacia. Each assay sample contained 2% DMSO, 50 mM tris pH 7.6, 1 mM EDTA, a test compound at the indicated concentration, approximately 1 μM substrate, and 50-100 nM protease. The kobs/I values were obtained from reactions initiated by addition of enzyme rather than substrate. RVP activity was measured in the fluorescence resonance energy transfer assay. The substrate was (N-terminal) DABCYL-([…]-EDANS. In the uncleaved peptide, the EDANS fluorescence was quenched by the proximal DABCYL moiety. When the peptide was cleaved, the quenching was relieved, and activity was measured as an increase in fluorescence signal. The tabulated data in the column designated kobs/[I] were measured from progress curves in enzyme start experiments.

[4] = target: T3, recombinant rhinovirus 3C protease, serotype 16 (Human rhinovirus 16, UniProt Q82122); assay: Inhibition of rhinovirus 3C protease (FRET assay), serotype 16; assay type: biochemical; conditions: HRV-16 3C protease
T3 construct: Recombinant rhinovirus 3C proteases; made in house
Method: as §1

[5] = tested on: HRV-89; assay: Antirhinoviral H1-HeLa cell culture assay (XTT), HRV-89; assay type: cell-based, human rhinovirus; conditions: Rhinovirus A, HRV89, HRV-89, H1-HeLa cells
Excerpt: (§2) (1989), vol. 81, 577-586.

[6] = in vitro; conditions: human, mock-infected H1-HeLa cells
[7] = target: T4, recombinant rhinovirus 3C protease, serotype 2 (Human rhinovirus 2, UniProt P04936); assay: Inhibition of rhinovirus 3C protease (FRET assay), serotype 2; assay type: biochemical; conditions: HRV-2 3C protease
T4 construct: Recombinant rhinovirus 3C proteases; made in house
Method: as §1

[8] = tested on: HRV-14; assay: Antirhinoviral H1-HeLa cell culture assay (XTT), HRV-14; assay type: cell-based, human rhinovirus; conditions: Rhinovirus B, HRV14, HRV-14, H1-HeLa cells
[9] = tested on: CAV-21; assay: Anticoxsackieviral cell culture assay (XTT), CAV-21; assay type: cell-based, coxsackievirus A21; conditions: Enterovirus C, 48 h; CAV-21, H1-HeLa cells, m.o.i. 0.025, two days
[10] = tested on: HRV-1A; assay: Antirhinoviral H1-HeLa cell culture assay (XTT), HRV-1A; assay type: cell-based, human rhinovirus; conditions: Rhinovirus A, HRV1A, H1-HeLa cells
Excerpt: as §2

[11] = Cytotoxicity in uninfected H1-HeLa cells (anticoxsackieviral assay, XTT); assay type: cell-based; conditions: human
[12] = tested on: ECHO 11; assay: Anti-echoviral cell culture assay (XTT), ECHO 11 in MRC-5 cells; assay type: cell-based, echovirus 11; conditions: Enterovirus B, MRC5, 96 h; ECHO-11, MRC-5 cells, four days
Method: (§3) Echovirus type 11 (ECHO 11) was purchased from ATCC (Rockville, Md.). Virus stocks were propagated and antiviral assays were performed in MRC-5 cells (ATCC).

[13] = tested on: CVB3; assay: Anticoxsackieviral cell culture assay (XTT), CVB3; assay type: cell-based, coxsackievirus B3; conditions: Enterovirus B, 24 h; CVB3, H1-HeLa cells, m.o.i. 0.075, one day
[14] = Cytotoxicity in uninfected MRC-5 cells (anti-echoviral assay, XTT); assay type: cell-based; conditions: human, ECHO-11 row
Method: as §3

[15] = tested on: HRV-10; assay: Antirhinoviral H1-HeLa cell culture assay (XTT), HRV-10; assay type: cell-based; conditions: Human rhinovirus sp., HRV10, HRV-10, H1-HeLa cells
Excerpt: as §2

T2 sequence (P03303 1538-1719): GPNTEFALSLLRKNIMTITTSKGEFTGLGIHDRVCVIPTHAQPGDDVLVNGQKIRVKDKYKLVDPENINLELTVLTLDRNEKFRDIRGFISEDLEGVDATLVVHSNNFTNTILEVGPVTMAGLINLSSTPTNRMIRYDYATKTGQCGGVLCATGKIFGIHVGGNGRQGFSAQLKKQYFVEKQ
T4 sequence (P04936 1508-1690): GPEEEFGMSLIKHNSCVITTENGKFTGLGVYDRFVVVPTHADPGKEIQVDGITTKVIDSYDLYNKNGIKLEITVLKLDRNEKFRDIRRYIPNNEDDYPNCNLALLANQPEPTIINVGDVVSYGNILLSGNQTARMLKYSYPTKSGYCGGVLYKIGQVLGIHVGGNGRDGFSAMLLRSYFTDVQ
T3 sequence (Q82122 1511-1693): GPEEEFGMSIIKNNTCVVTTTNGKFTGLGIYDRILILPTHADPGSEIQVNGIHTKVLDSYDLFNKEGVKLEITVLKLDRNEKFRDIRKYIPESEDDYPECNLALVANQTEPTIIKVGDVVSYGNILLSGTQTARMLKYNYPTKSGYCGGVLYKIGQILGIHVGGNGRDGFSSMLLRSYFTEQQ
T1 sequence (P07210 1522-1704): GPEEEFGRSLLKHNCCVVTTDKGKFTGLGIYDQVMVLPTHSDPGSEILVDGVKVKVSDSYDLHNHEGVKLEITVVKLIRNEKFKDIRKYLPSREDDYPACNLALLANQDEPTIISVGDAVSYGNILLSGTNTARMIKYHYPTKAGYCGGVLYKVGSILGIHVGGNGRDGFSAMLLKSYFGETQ

SMILES | Ki [1] [nM] | CC50 [2] [nM] | Ki [3] [nM] | Ki [4] [nM] | EC50 [5] [nM] | CC50 at 2 days [6] [nM] | Ki [7] [nM] | EC50 [8] [nM] | EC50 [9] [nM] | EC50 [10] [nM] | CC50 at 2 days ([11]; CAV-21) [nM] | CC50 at 1 day ([11]; CVB3) [nM] | EC50 [12] [nM] | EC50 [13] [nM] | CC50 at 4 days [14] [nM] | EC50 [15] [nM]
C#CC(=O)[C@H](CNC(C)=O)NC(=O)[C@H](Cc1ccccc1)NC(=O)[C@H](CC(C)C)NC(=O)OCc1ccccc1 [Compound 14, Cbz-L-Leu-L-Phe-L-(N-Ac-amino-Ala)-C≡CH] | 760 | > 100000 | 65 | 322 | > 100000 | > 100000 | 124 | > 100000 | – | – | – | – | – | – | – | –
Cc1cc(C(=O)N[C@H](C(=O)N[C@@H](Cc2ccc(F)cc2)C(=O)N[C@@H](C[C@@H]2CCNC2=O)C(=O)c2nc3ccccc3s2)C(C)C)no1 [Compound 28, (5-Methylisoxazole-3-carboxyl)-L-Val-L-Phe(4-F)-L-[(S)-Pyrrol-Ala]-2-Benzthiazole] | – | – | 4.5 | – | – | 251000 | – | 335 | 4670 | 337 | 251000 | 251000 | 821 | 5790 | 251000 | 253
